Source: patent US12171756B2, “NLRP3 modulators” (Innate Tumor Immunity, Inc., priority 2017, dated 2024)
Where two headings read alike, the source gives them in different places.

Columns and labels:
[1] = target: T1, human TLR7 (Homo sapiens, UniProt Q9NYK1); assay: In vitro human TLR7 binding reporter assay (HEK-Blue, NF-kB/AP1-inducible SEAP); assay type: cell-based; settings: HEK-Blue human TLR7 SEAP reporter cells; activity range classes; read-out: TLR7 Agonist EC50
T1 construct: host or cells: human HEK-Blue cells (HEK293-derived) co-expressing TLR7 and an NF-kB/AP1-inducible SEAP reporter
T1 sequence (Q9NYK1 27-1049): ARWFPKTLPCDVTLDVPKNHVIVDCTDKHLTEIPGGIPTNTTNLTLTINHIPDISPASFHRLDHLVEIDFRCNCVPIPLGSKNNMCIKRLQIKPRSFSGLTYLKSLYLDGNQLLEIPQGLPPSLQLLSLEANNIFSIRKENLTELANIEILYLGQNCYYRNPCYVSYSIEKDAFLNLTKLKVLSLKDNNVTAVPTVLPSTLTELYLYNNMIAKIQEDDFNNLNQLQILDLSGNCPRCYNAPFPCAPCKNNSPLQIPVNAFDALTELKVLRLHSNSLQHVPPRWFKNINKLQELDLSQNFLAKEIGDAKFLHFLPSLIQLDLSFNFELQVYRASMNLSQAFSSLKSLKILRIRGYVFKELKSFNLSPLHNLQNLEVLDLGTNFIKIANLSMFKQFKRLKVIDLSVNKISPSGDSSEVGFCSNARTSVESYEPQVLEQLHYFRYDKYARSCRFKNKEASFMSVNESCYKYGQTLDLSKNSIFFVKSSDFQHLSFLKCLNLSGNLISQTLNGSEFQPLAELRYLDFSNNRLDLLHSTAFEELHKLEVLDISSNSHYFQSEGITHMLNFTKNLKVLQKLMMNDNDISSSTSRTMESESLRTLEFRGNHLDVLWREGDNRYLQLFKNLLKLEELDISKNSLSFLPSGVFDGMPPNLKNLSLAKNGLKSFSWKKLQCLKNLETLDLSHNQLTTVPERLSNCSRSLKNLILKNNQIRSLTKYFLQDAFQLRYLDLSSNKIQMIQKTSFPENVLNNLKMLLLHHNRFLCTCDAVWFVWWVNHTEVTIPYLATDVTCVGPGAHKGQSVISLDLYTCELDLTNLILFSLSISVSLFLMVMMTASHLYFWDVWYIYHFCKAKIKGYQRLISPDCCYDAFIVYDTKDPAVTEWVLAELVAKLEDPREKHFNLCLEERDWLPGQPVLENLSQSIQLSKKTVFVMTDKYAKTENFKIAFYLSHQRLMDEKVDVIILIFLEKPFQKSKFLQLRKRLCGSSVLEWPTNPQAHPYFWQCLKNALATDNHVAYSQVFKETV
Description: (§1) In Vitro Human TLR7 and TLR8 Binding Reporter Assays
(§2) Logarithmically-growing human HEK-Blue cells co-expressing a TLR7 or TLR8 gene and a NF-kB/AP1-inducible SEAP (secreted embryonic alkaline phosphatase; Invivogen, San Diego, CA) reporter gene are added to individual wells of a 384-well plate (15,000 cells per 20 μL per well) and maintained for 24 h at 37° C., 5% CO2. Test compounds or DMSO are distributed to separate wells the next day using acoustic liquid handling technology (100 nL per well) and cells are subsequently incubated for 18 h at 37° C., 5% CO2. Cellular SEAP production is measured using an Envision plate reader instrument thirty minutes after adding freshly-made Quanti-Blue reagent (prepared by following manufacturer instructions; Invivogen, San Diego, CA) to the HEK-Blue TLR Nf-kB-SEAP cell reactions. All EC50 values (half-maximal effective concentration) are determined using proprietary data analysis software. Normalized EC50 value=absolute value determined by setting 100% Ymax using a reference standard RLU (relative light unit) values from cells treated with 50 μM of the reference standard.

[2] = system: IL-1β production in PMA-differentiated THP-1 cells; assay: Measurement of IL-1β production in PMA-differentiated THP-1 cells (ELISA, 4 hours); assay type: cell-based, human; settings: assayed using one or more of the described procedures, read-out: NLRP3 hIL1B IC50
Description: Measurement of IL-1β Production in PMA-Differentiated THP-1 Cells THP-1 cells were purchased from the American Type Culture Collection and sub-cultured according to instructions from the supplier. Prior to experiments, cells were cultured in RPMI 1640 containing 10% heat inactivated FBS, penicillin (100 units/ml) and streptomycin (100 μg/ml), and maintained in log phase prior to experimental setup. Prior to the experiment THP-1 were treated with PMA (Phorbol 12-myristate 13-acetate) (10 μg/ml) for 24 hours. The day of the experiment the media was removed and attaching cells were treated with trypsin for 2 minutes, cells were then collected, washed with PBS (phosphate buffer saline), spin down, resuspended in 2% heat inactivated FBS with RPMI at a concentration of 1×10^6 cells/ml, and 100 μl was plated in a 96 well plate. Compounds were dissolved in dimethyl sulfoxide (DMSO) and added to the culture medium to achieve desired concentration (e.g. 100, 30, 10, 3, 1, 0.3 or 0.1 μM). Cells were incubated with compounds for 4 hours. Cell free supernatant was collected and the production of IL-1β was evaluated by ELISA. A vehicle only control was run concurrently with each experiment. Final DMSO concentration was 1%.

[3] = target: T2, human TLR8 (Homo sapiens, UniProt Q9NR97); assay: In vitro human TLR8 binding reporter assay (HEK-Blue, NF-kB/AP1-inducible SEAP); assay type: cell-based; settings: HEK-Blue human TLR8 SEAP reporter cells; activity range classes; read-out: TLR8 Agonist EC50
T2 construct: host or cells: human HEK-Blue cells (HEK293-derived) co-expressing TLR8 and an NF-kB/AP1-inducible SEAP reporter
T2 sequence (Q9NR97 27-1041): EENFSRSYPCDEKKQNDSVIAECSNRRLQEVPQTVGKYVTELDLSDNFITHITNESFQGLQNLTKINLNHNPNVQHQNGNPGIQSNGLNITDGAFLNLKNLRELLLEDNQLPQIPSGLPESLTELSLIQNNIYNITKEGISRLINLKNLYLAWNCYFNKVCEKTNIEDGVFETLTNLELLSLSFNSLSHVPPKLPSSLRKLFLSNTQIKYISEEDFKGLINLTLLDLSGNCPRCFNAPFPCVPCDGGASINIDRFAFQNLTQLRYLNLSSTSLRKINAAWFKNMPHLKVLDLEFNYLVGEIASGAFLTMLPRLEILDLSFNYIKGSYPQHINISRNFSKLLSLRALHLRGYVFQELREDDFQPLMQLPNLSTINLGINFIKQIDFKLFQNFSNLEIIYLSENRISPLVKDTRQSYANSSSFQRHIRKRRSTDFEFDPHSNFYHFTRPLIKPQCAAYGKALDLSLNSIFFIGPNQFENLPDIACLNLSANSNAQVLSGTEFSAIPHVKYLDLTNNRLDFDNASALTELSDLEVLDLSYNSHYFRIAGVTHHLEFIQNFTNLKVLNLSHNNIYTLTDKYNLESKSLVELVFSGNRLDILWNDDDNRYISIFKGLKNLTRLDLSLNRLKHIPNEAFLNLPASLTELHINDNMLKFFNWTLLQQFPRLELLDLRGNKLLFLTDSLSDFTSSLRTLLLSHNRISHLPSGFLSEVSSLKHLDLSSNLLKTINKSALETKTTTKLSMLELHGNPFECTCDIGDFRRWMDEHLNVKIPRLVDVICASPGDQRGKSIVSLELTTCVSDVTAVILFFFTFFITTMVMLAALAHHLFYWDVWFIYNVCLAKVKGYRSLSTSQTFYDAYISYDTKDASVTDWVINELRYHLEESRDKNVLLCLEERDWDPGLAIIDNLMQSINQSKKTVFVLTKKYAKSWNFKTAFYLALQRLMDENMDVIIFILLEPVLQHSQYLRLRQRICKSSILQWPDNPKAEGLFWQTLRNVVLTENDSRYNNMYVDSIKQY
Description: as §1, §2

[4] = Homo sapiens, THP-1, human IL-1β production

| EC50 [1] | IC50 [2, 4] | EC50 [3] | IC50 ([2]; human IL-1β production) | Structure (SMILES) |
| --- | --- | --- | --- | --- |
| > 100 µM | 8.4 µM | > 100 µM |  | Nc1cc(OCC(=O)N2CCCC2)c2ccc(-c3ccn[nH]3)cc2n1 [Compound 183] |
| > 100 µM | 6.31 µM | > 100 µM |  | CC(=O)NCCOc1cc(N)nc2cc(-c3ccn[nH]3)ccc12 [Compound 188] |
| > 100 µM | 0.27 µM | > 100 µM |  | CNc1cc(N)nc2cc(-c3ccn[nH]3)ccc12 [Compound 253] |
| > 100 µM | 0.55 µM | > 100 µM |  | Nc1cc(NCC2CCOCC2)c2ccc(-c3ccn[nH]3)cc2n1 [Compound 137] |
| > 100 µM | 2.46 µM | > 100 µM |  | CCN(CCCCc1cc2ccc(-c3cc[nH]n3)cc2nc1N)C(C)=O [Compound 111] |
| > 100 µM | 1.8 µM | > 100 µM |  | Nc1ccc2ccc(-c3ccn[nH]3)cc2n1 [Compound 314, 7-(1H-pyrazol-5-yl)quinolin-2-amine] |
| > 100 µM | 3.07 µM | > 100 µM |  | CC(=O)NCCOc1cc(N)nc2cc(-n3cccn3)ccc12 [Compound 177, N-(2-((2-amino-7-(1H-pyrazol-1-yl)quinolin-4-yl)oxy)ethyl)acetamide] |
| > 100 µM |  | > 100 µM | 5.72 µM | Nc1cc(N[C@@H]2CCNC2)c2ccc(-c3ccn[nH]3)cc2n1 [Compound 323] |
| > 100 µM | 0.12 µM | > 100 µM |  | Nc1cc(NCc2ccccn2)c2ccc(-c3ccn[nH]3)cc2n1 [Compound 135] |
| > 100 µM | 0.2 µM | > 100 µM |  | Nc1cc(NC2CCOC2)c2ccc(-c3ccn[nH]3)cc2n1 (stereo not drawn) [Compound 275] |
| > 100 µM | 1.1 µM | > 100 µM |  | Nc1cc(NCCc2cccnn2)c2ccc(-c3cccs3)cc2n1 [Compound 342, N4-(2-(pyridazin-3-yl)ethyl)-7-(thiophen-2-yl)quinolin-2,4-diamine] |
| > 100 µM | 5.81 µM | > 100 µM |  | Nc1cc(N2CC[C@@H](O)C2)c2ccc(-c3ccn[nH]3)cc2n1 [Compound 143] |
| > 100 µM | 2.76 µM | > 100 µM |  | Nc1cc(N[C@H]2CCCC[C@@H]2O)c2ccc(-c3ccn[nH]3)cc2n1 [Compound 160] |
| > 100 µM | 0.65 µM | > 100 µM |  | Nc1cc(OCC2(CO)COC2)c2ccc(-c3ccsc3)cc2n1 [Compound 332, (3-(((2-amino-7-(thiophen-3-yl)quinolin-4-yl)oxy)methyl)oxetan-3-yl)methanol] |
| > 100 µM | 1.73 µM | > 100 µM |  | CN(C)C1CCN(Cc2cc3ccc(-c4ccn[nH]4)cc3nc2N)CC1 [Compound 118] |
|  | 2.4 µM | > 100 µM |  | CN(C)CCCNc1cc(N)nc2cc(-c3ccn[nH]3)ccc12 [Compound 168, N4-(3-(dimethylamino)propyl)-7-(1H-pyrazol-5-yl)quinoline-2,4-diamine] |
|  | 2.76 µM | > 100 µM |  | CN1CCN(c2cc(N)nc3cc(-c4ccn[nH]4)ccc23)CC1 [Compound 130] |
|  | 5.8 µM |  |  | Nc1nc2cc(-c3ccn[nH]3)ccc2cc1CNCC1CCCO1 (stereo not drawn) [Compound 117] |
|  | 1.98 µM |  |  | Nc1nc2cc(-c3ccn[nH]3)ccc2cc1-c1cccc(CO)n1 [Compound 125] |
|  | 9.92 µM | > 100 µM |  | Nc1cc(OCCCN2CCCC2=O)c2ccc(-c3ccn[nH]3)cc2n1 [Compound 181] |
|  | 3.01 µM |  |  | Nc1nc2cc(-c3ccn[nH]3)ccc2cc1-c1cnc[nH]1 [Compound 123, 3-(1H-imidazol-5-yl)-7-(1H-pyrazol-5-yl)quinolin-2-amine] |
|  | 1.15 µM |  |  | Nc1cc(CCCOCc2ccccc2)c2ccc(-c3cc[nH]n3)cc2n1 [Compound 108, 4-[3-(benzyloxy)propyl]-7-(1H-pyrazol-3-yl)quinolin-2-amine] |
|  | 1.87 µM |  |  | CN1CCN(CCc2cc3ccc(-c4ccn[nH]4)cc3nc2N)CC1 [Compound 122] |
|  | 4.24 µM |  |  | Nc1nc2cc(-c3ccn[nH]3)ccc2cc1C1(CO)CC1 [Compound 120] |
|  | 7.27 µM | > 100 µM |  | CN1CCN(CCCCOc2cc(N)nc3cc(-c4ccn[nH]4)ccc23)CC1 [Compound 184] |
|  | 3.03 µM | > 100 µM |  | Nc1nc2cc(-c3ccn[nH]3)ccc2cc1CCN1CCOCC1 [Compound 121] |
|  | 3.53 µM |  |  | Cc1n[nH]c(-c2cc3ccc(-c4ccn[nH]4)cc3nc2N)n1 [Compound 126] |
|  | 0.38 µM | > 100 µM |  | Nc1cc(NCCCO)c2ccc(-c3ccn[nH]3)cc2n1 [Compound 171] |
| > 100 µM | 0.76 µM |  |  | Nc1cc(NCCC2CCOCC2)c2ccc(-n3cccn3)cc2n1 [Compound 346, 7-(1H-pyrazol-1-yl)-N4-(2-(tetrahydro-2H-pyran-4-yl)ethyl)quinoline-2,4-diamine] |
